From patent US11415579B2, “Assay for measuring a rate of reaction between a target and a ligand candidate” (Imperial College Innovations Ltd., priority 2016, dated 2022)

Experiments:
[1] = Kinetic thiol consumption assay with model thiol glutathione; format: physicochemical; parameters: Rate constant with glutathione (k(GSH)): unit not given here; details: for Rate constant with glutathione (k(GSH)): 500 μM ligand, 5 μM thiol, phosphate buffer pH 8; for Rate constant with Glutathione: Protein: Glutathione, cysteine position NA, in h-1
In short: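 First, 5 μM glutathione in degassed phosphate buffer (pH 8) receives immobilized TCEP beads (2% v/v). Then acrylamide is added and plates incubate 1 h at room temperature. Finally, fluorescence (380/470 nm) is normalized and fitted to first-order decay for rate constants.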

[2] = target: T1, human cyclin-dependent kinase 2 (Cdk2) (Homo sapiens, UniProt P24941); assay: Kinetic thiol consumption assay with wild type Cdk2 (C177); format: binding; parameters: key to Rate enhancement, Cdk2 WT: k(Cdk2) divided by k(model thiol); Rate constant with Cdk2 (k(Cdk2)): unit not given here; details: for Rate constant with Cdk2 (k(Cdk2)): 500 μM ligand, 5 μM thiol, phosphate buffer pH 8; for Rate enhancement, Cdk2 WT: no additional mutations; for Rate constant with Cdk2 WT: Protein: Cdk2, cysteine position WT, in h^-1; for k(Cdk2)/k(Cdk2_mut) rate enhancement: model thiol Cdk2[C177A, F80C, K278C]; for k(Cdk2)/k(GSH) rate enhancement: model thiol glutathione
T1 construct: poly-histidine; made in house; host or cells: E. coli
In short: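 His-tagged human Cdk2 (single surface cysteine C177), expressed in E. coli, or a model thiol at 5 μM in degassed phosphate buffer pH 8 was pre-treated with immobilized TCEP beads (2% v/v) before acrylamide addition. Fluorescence (ex/em 380/470 nm) was read after 1 h at room temperature, normalized to DMSO/thiol-only control and plotted versus time.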

[3] = target: T2, Cdk2[C177A, F80C, K278C] (Homo sapiens, UniProt P24941, C177A/F80C/K278C); assay: Kinetic thiol consumption assay with mutant Cdk2 as model thiol; format: binding; parameters: unit not given here; details: 500 μM ligand, 5 μM thiol, phosphate buffer pH 8
T2 construct: poly-histidine; made in house; host or cells: E. coli
In short: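 First-order rate constants were derived by exponential-decay fitting of DMSO/thiol-normalized fluorescence (380/470 nm) over time at room temperature. Thiol was 5 μM E. coli-expressed His-tagged Cdk2 mutant C177A/F80C/K278C in degassed pH 8 phosphate buffer containing 2% v/v TCEP beads.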

[4] = target: T3, Cdk2(C177A, F80C) (Homo sapiens, UniProt P24941, C177A/F80C); assay: Kinetic thiol consumption assay with Cdk2 mutant F80C, incl. kobs versus concentration (Kd, k2); format: binding; parameters: key to Rate enhancement, Cdk2 F80C: Cdk2 rate constant divided by model-thiol rate constant; details: additional mutation C177A; for Rate constant with Cdk2 F80C: Protein: Cdk2, cysteine position F80C, in h^-1
T3 construct: poly-histidine; made in house; host or cells: E. coli
In short: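 His-tagged Cdk2(C177A/F80C) from E. coli or model thiol, 5 μM in degassed phosphate buffer pH 8 with TCEP beads, reacted with acrylamide ligands; fluorescence (ex/em 380/470 nm) normalized to DMSO control and fitted to first-order decay for kobs. Kd and k2 obtained from hyperbolic fit of kobs versus ligand concentration.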

[5] = target: T4, Cdk2(H71C) (C177A) (Homo sapiens, UniProt P24941, C177A/H71C); assay: Kinetic thiol consumption assay with Cdk2 mutant H71C; format: binding; parameters: key to Rate enhancement, Cdk2 H71C: rate constant with Cdk2 ÷ rate constant with model thiol (fold); details: additional mutation C177A; for Rate constant with Cdk2 H71C: Protein: Cdk2, cysteine position H71C, in h^-1
T4 construct: poly-histidine; made in house; host or cells: E. coli
In short: (§1)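 Read-out is fluorescence at 380/470 nm, taken after 1 h at room temperature and normalized to a DMSO/thiol-only control over time. Thiol (5 μM Cdk2 mutant or model thiol) was in degassed pH 8 phosphate buffer with 2% v/v TCEP beads. Acrylamide rate constants for Cdk2 were divided by those with model thiol.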

[6] = target: T5, Cdk2(S276C) (C177A) (Homo sapiens, UniProt P24941, C177A/S276C); assay: Kinetic thiol consumption assay with Cdk2 mutant S276C; format: binding; parameters: key to Rate enhancement, Cdk2 S276C: rate constant with Cdk2 ÷ rate constant with model thiol (fold); details: additional mutation C177A; for Rate constant with Cdk2 S276C: Protein: Cdk2, cysteine position S276C, in h^-1
T5 construct: poly-histidine; made in house; host or cells: E. coli
In short: as §1

[7] = target: T6, Cdk2(N272C) (C177A) (Homo sapiens, UniProt P24941, C177A/N272C); assay: Kinetic thiol consumption assay with Cdk2 mutant N272C; format: binding; parameters: key to Rate enhancement, Cdk2 N272: rate constant with Cdk2 ÷ rate constant with model thiol (fold); details: for Rate enhancement, Cdk2 N272: Cdk2 N272, additional mutation C177A; for Rate constant with Cdk2 N272C: Protein: Cdk2, cysteine position N272C, additional mutation C177A, in h^-1
T6 construct: poly-histidine; made in house; host or cells: E. coli
In short: as §1

[8] = target: T7, Cdk2(T182C) (C177A) (Homo sapiens, UniProt P24941, C177A/T182C); assay: Kinetic thiol consumption assay with Cdk2 mutant T182C; format: binding; parameters: key to Rate enhancement, Cdk2 T182C: rate constant with Cdk2 ÷ rate constant with model thiol (fold); details: additional mutation C177A; for Rate constant with Cdk2 T182C: Protein: Cdk2, cysteine position T182C, in h^-1
T7 construct: poly-histidine; made in house; host or cells: E. coli
In short: as §1

[9] = target: T8, Cdk2(R122C) (C177A) (Homo sapiens, UniProt P24941, C177A/R122C); assay: Kinetic thiol consumption assay with Cdk2 mutant R122C; format: binding; parameters: key to Rate enhancement, Cdk2 R122C: rate constant with Cdk2 ÷ rate constant with model thiol (fold); details: additional mutation C177A; for Rate constant with Cdk2 R122C: Protein: Cdk2, cysteine position R122C, in h-1
T8 construct: poly-histidine; made in house; host or cells: E. coli
In short: as §1

[10] = target: T9, Cdk2(S181C) (C177A) (Homo sapiens, UniProt P24941, C177A/S181C); assay: Kinetic thiol consumption assay with Cdk2 mutant S181C; format: binding; parameters: key to Rate enhancement, Cdk2 S181C: rate constant with Cdk2 ÷ rate constant with model thiol (fold); details: additional mutation C177A; for Rate constant with Cdk2 S181C: Protein: Cdk2, cysteine position S181C, in h^-1
T9 construct: poly-histidine; made in house; host or cells: E. coli
In short: as §1

SMILES	Rate constant with glutathione (k(GSH)) [1]	Rate constant with Glutathione [1]	Rate constant with Cdk2 (k(Cdk2)) [2]	Rate enhancement, Cdk2 WT [2]	Rate constant with Cdk2 WT [2]	k(Cdk2)/k(Cdk2_mut) rate enhancement [2]	k(Cdk2)/k(GSH) rate enhancement [2]	Rate constant with Cdk2[C177A, F80C, K278C] (k(Cdk2_mut)) [3]	Rate enhancement, Cdk2 F80C [4]	Rate constant with Cdk2 F80C [4]	Rate enhancement, Cdk2 H71C [5]	Rate enhancement, Cdk2 S276C [6]	Rate constant with Cdk2 S276C [6]	Rate enhancement, Cdk2 N272 [7]	Rate constant with Cdk2 N272C [7]	Rate enhancement, Cdk2 T182C [8]	Rate constant with Cdk2 T182C [8]	Rate enhancement, Cdk2 R122C [9]	Rate enhancement, Cdk2 S181C [10]	Rate constant with Cdk2 S181C [10]	also measured
C=CC(=O)N1CCN(c2cccc3cccnc23)CC1 [EL-1156]	0.01763	0.01759	0.01873	1.065	0.01873	0.8683	1.062	0.02157	1.015	0.01786	0.3885	1.35	0.02375	0.3397	0.005976	4.097	0.07206	0.6879	1	0.01759	Rate constant with Cdk2 H71C [5]: 0.006834; Rate constant with Cdk2 R122C [9]: 0.0121
C=CC(=O)N(c1ccc2c(c1)OCCO2)C1CC1 [CA-167]	0.01009	0.02315	0.01101	0.4756	0.01101	4.177	1.091	0.00264	0.289	0.00669	0.1567	0.3514	0.008135	0.2702	0.006256	2.016	0.04668	0.1363	0.343	0.00794	Rate constant with Cdk2 H71C [5]: 0.003628; Rate constant with Cdk2 R122C [9]: 0.003155
C=CC(=O)Nc1cccc2ncccc12 [CA-012]	0.05132	0.05195	0.09635	1.855	0.09635	0.2318	1.877	0.4157	3.888	0.202	0.317	0.9852	0.05118	0.4189	0.02176	5.8	0.3013	0.6897	2.504	0.1301	Rate constant with Cdk2 H71C [5]: 0.01647; Rate constant with Cdk2 R122C [9]: 0.03583
C=CC(=O)NC(Cc1ccccc1)C(O)CF (centres unmarked) [EL-1164]	0.00485	0.007698	0.00239	0.4757	0.003662	3.262	0.4934	0.00073	0.2794	0.002151	0	2.9904E−12	2.302E−14	0.09396	0.0007233	0.1829	0.001408	0	0.9819	0.007559	
C=CC(=O)NC(C)c1ccc2c(c1)OCO2 (centres unmarked) [EL-1051]	0.00461	0.004569	0.00298	0.6621	0.003025	0.8251	0.6464	0.00361	0.1378	0.0006296	0	1.226	0.005603	0.3701	0.001691	0.6691	0.003057	0.3414	0.6373	0.002912	Rate constant with Cdk2 R122C [9]: 0.00156
